Earlier results, collected in publication PMC8952239, “Injectable Biodegradable Silica Depot: Two Months of Sustained Release of the Blood Glucose Lowering Peptide, Pramlintide” (Pharmaceutics, 2022).
Bridge positions count the residues as written; N and C are the ends. Ends that are not written are not given here.

Experiments:
lean rats = tested on: lean rats
Excerpt: (Figure 6). […] The findings for bodyweight loss mirror very well previously published data in lean rats. Roth et al. show body weight returning to baseline levels 8 days after the start of amylin treatment in an experiment assessing the effect ...

rats = tested on: rats
Procedure: In an earlier preclinical study of pramlintide in rats, the peak plasma concentration of pramlintide at 50% maximally effective gastric inhibitory dose was reported to be 15 pM. The lower dose (5 mg/kg) formulation in the present study seems to achieve this concentration level by the end of the study.

[1] = weak acid; no reference given
Excerpt: In this communication, we highlight a sustained delivery strategy for in vivo delivery of the synthetic peptide analogue of amylin, pramlintide acetate. As mentioned earlier, amylin is the endogenous hormone co-secreted with insulin by the pancreas for glucose metabolism in vivo. […] Such effects can be moderated either by decreasing the single dosing of preprandial ins ...

amylin: endogenous hormone co-secreted with insulin by the pancreas (KCNTATCATQRLANFLVHSSNNFGAILSSTNVGSNTY; Islet amyloid polypeptide; UniProt P10997 34-70, looked up)
time after start of treatment at which body weight returned to baseline levels (lean rats; continuous subcutaneous amylin infusion over 24 days): 8 days
period with significant effects on food intake (lean rats; lean animals, minipump over 14 days): 6 days

pramlintide acetate (KCNTATCATQRLANFLVHSSNNFGPILPPTNVGSNTY-NH2; disulfide 2-7 (inferred); also: acetate salt; UniProt P10997 34-70, looked up, variant A25P S28P S29P) [synthetic analogue of amylin, adjunct to preprandial insulin therapy]
peak plasma concentration at 50% maximally effective gastric inhibitory dose (rats): 15 pM

O[Si](O)(O)O [silicic acid]
pKa [1]: 9.84
